Reference: patent US20250295792A1, “POLYETHYLENE GLYCOL-MODIFIED FORM OF KININ OR DERIVATIVE THEREOF AND PHARMACEUTICAL USE THEREOF” (ZonHon Biopharma Institute, Inc., priority 2022, published 2025)
Where two headings read alike, the source gives them in different places. Blank lines part the entries; values can stand above or below the compound they belong to. Where a SMILES comes first, the peptide text is derived from it. Where no end group is shown, it is not given here. [ ]: non-standard residue; d: D form. M‑SPA‑5K = straight-chain monomethoxy PEG succinimidyl propionate, about 5 kDa; 2Thi = N[C@@H](Cc1cccs1)C(=O)O

Columns and labels:
[1] = Stability in SD rat serum system in vitro (UPLC-RP)
Method: Assess the stability of lysyl bradykinin/bradykinin by evaluating its stability in serum system in vitro. 2 mg/ml peptide and SD rat serum were mixed at volume ratio of 85:15, incubated at 37° C. for 30 min, 60 min, 90 min, 120 min, 180 min, etc, terminate by adding 3% trichloroacetic acid (50% volume of the above mixture system with peptide and serum) and effectively remove matrix interference in the serum. Further monitor the degradation of peptide samples in the serum system to evaluate its stability basing on UPLC-RP-UV214 nm method. RP analysis method: Protein BEH C4 2.1×150 mm as chromatographic column, 1.7 μm, column temperature 30° C., mobile phase A: 0.1% TFA/H2O, mobile phase B: 0.1% TFA/ACN, gradient: 0-5 min, 5% B; 5-10 min, 5-40% B; 10-30 min, 40-60% B; 30-32 min, 60-100% B; 32 to 35 min, 5% B.
The stability of PEG conjugates of lysyl bradykinin and its variants was indirectly evaluated by evaluating their stability in serum system in vitro, as determined in Example 2.

B2 receptor = molecular target: T1, B2 receptor (Homo sapiens, UniProt P30411); assay: B2 receptor reporter gene assay in B2-NFAT-CHO-K1 cells; format: cell-based; settings: Table 3-1; relative activity calculated from EC50, wild type Lys-BK = 100%
T1 construct: expressed in transfected cells; host or cells: CHO-K1
T1 sequence (P30411 1-391): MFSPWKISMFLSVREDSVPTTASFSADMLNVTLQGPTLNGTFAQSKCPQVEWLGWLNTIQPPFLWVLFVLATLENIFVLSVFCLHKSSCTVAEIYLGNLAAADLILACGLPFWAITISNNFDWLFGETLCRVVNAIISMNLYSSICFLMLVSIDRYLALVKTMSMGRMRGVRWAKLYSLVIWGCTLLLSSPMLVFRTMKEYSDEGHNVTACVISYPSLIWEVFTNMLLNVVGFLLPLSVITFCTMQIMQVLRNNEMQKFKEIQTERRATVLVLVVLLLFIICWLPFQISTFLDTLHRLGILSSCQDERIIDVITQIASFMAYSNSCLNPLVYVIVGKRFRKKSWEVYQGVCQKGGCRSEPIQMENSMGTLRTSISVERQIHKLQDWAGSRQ
Source text: The pharmacological action of lysyl bradykinin/bradykinin in vivo is achieved by binding to B2 receptors and activating downstream signaling pathways
The cell line B2-NFAT-CHO-K1 stably transfected with B2 receptor reporter gene was constructed based on CHO-K1 host cells and the cell library was constructed. The B2-NFAT-CHO-K1 cell library was used to evaluate the binding activity of lysyl bradykinin/bradykinin or its variants or PEG modified products to B2 receptor in vitro.
Detection methods: The cells were cultured in 96-well plates at 5×10^4 cells/well, 37° C., 5% CO2 for 16-20 hours, and then gradient diluted standard and test solutions were added. After 5 hours, added Bio-Lite luciferase detection reagent and the chemiluminescence intensity was measured. GraphPad was used to make four-parameter equation curve and calculate the relative activity according to the EC50 value.
(§1) In vitro B2-receptor affinity activity and activity of activating downstream signaling pathway of PEG conjugates of lysyl bradykinin and its variants were tested, as in Example 3.

[2] = subcutaneous 30 mg in adults; cited from earlier work
[3] = tested on: p-CREB and p-ERK1/2, B2 receptor downstream signals; assay: Western blot of p-ERK1/2 and p-CREB in CHO-K1 cells overexpressing B2 receptor; format: cell-based; settings: FIG. 5
Method: as §1

[4] = tested on: middle cerebral artery occlusion (MCAO) cerebral ischemia-reperfusion model; assay: MCAO cerebral ischemia-reperfusion model: neurological deficit score and cerebral infarct size; format: in vivo, SD rats; settings: for Neurological deficit symptoms compared with the model group (in words): Example 7, FIG. 7a; for Neurological deficit symptoms compared with the model group (in words) / Cerebral infarct size compared with the model group (in words): intravenous, Edaravone 6 mg/kg, conjugate 3 mg/kg; for Cerebral infarct size compared with the model group (in words): Example 7, FIG. 7b
Method: SD rats, male, SPF grade, weighing 270-300 g. The middle cerebral artery occlusion (MCAO) of cerebral ischemia-reperfusion model was prepared by using the intraluminal suture method in rats. Animals were anesthetized with gas (isoflurane), and then fixed them in a supine position. The skin was disinfected, and the right common carotid artery, external carotid artery, and internal carotid artery were separated from the midline incision in the neck. The vagus nerve was gently peeled off, and the external carotid artery was ligated and cut. The common carotid artery was clamped near the proximal end, and an incision was made from the distal end of the ligature line of the external carotid artery. The suture (model 2438-A5, purchased from Beijing Xinong Technology Co., LTD.) was inserted and passed through the bifurcation of the common carotid artery into the internal carotid artery. The suture was then slowly inserted until slight resistance was encountered (about 20 mm from the bifurcation), blocking the blood supply to the middle cerebral artery. The neck skin was sutured, disinfected, and the rat was returned to the cage. After 90 minutes of ischemia, the rat was anesthetized again, fixed on the rat board, and the neck skin was cut open to find the suture, which was gently removed. Reperfusion was performed, and the neck skin was sutured, disinfected, and the rat was returned to the cage for feeding.
The rats were divided into sham operation group, model group (administered PBS intravenously), Edaravone group (administered intravenously, 6 mg/kg), and PEG conjugate of lysyl bradykinin group (administered intravenously, 3 mg/kg). The rats were injected once after 2 hours of reperfusion.
The modified Bederson method was used to evaluate neurological defect symptoms.
Animals were anesthetized with 10% chloral hydrate, the brain tissue was removed, the olfactory bulbs, cerebellum and lower brainstem were removed, and the bloodstain on brain surface was washed with […]. After removing surface residual water, the brain tissue was placed at −80° C. for 7 minutes, took out and cut into coronal sections perpendicular to the visual cross plane, and sliced at intervals of 2 mm to the posterior direction. The brain slices were placed in fresh TTC (20 g/L) dye solution prepared with SPSS at 37° C. for 90 minutes. Normal brain tissue was stained deep red, while ischemic brain tissue appeared pale. After washing with SPSS, the brain slices were quickly arranged in sequence from front to back, residual water on the surface was absorbed, and photographed. The image analysis software (Image Tool) was used to delineate the ischemic area (white area) and the right side area on the photos for statistical analysis. The percentage of cerebral infarction area was calculated using the following formula:
Cerebral infarction area (%)=100×total ischemic area/total right hemisphere area.
Except for Table 7-6, the dosage of the other groups was 3 mg/kg (all the dosage was calculated based on peptides). The administration methods included intravenous injection and subcutaneous injection, and the injection was given once after 2 hours of reperfusion.
Based on the same model, the effect of PEG conjugate of lysyl bradykinin variant was investigated by both intravenous and subcutaneous injection at dose of […] (the dose was calculated based on polypeptide). […]

[5] = Table 2-1, 2 mg/ml peptide : SD rat serum 85:15 v/v, 37° C., sampled 30-180 min

Compound: N=C(N)NCCC[C@H](NC(=O)[C@H](Cc1ccccc1)NC(=O)[C@@H]1CCCN1C(=O)[C@H](CO)NC(=O)[C@H](Cc1cccs1)NC(=O)CNC(=O)[C@@H]1CCCN1C(=O)[C@@H]1CCCN1C(=O)[C@H](CCCNC(=N)N)NC(=O)[C@H](CCCNC(=N)N)NC(=O)[C@H](CCCNC(=N)N)NC(=O)[C@@H](N)CS)C(=O)O [Lys-BKm16] (H-CRRRPPG[2Thi]SPFR-OH; N-terminus and C-terminus assumed)
Residual time in serum system [1, 5]: 60~90 min

Relative affinity activity (B2 receptor): 0%
Compound: Lys-BKm09: variant peptide {THI}SPFR, SEQ ID NO 10 ([2Thi]SPFR)

Relative affinity activity (B2 receptor): <10%
Compound: Lys-BKm08: variant peptide PG{THI}SPFR, SEQ ID NO 9 (PG[2Thi]SPFR)

Compound: NC(N)=NCCC[C@@H](N)C(=O)N[C@@H](CCCN=C(N)N)C(=O)N1CCC[C@H]1C(=O)N1C[C@H](O)C[C@H]1C(=O)NCC(=O)N[C@@H](Cc1cccs1)C(=O)N[C@@H](CO)C(=O)N1Cc2ccccc2C[C@@H]1C(=O)N1[C@H](C(=O)N[C@@H](CCCN=C(N)N)C(=O)O)C[C@@H]2CCCC[C@@H]21 [icatibant]
peak blood concentration [2]: 405 ng/mL | time to peak blood concentration [2]: 1.79 h

Relative affinity activity (B2 receptor): 0%
Compound: Lys-BKm10: variant peptide SPFR, SEQ ID NO 11

Residual time in serum system [1, 5]: 90 to 120 min
Compound: N=C(N)NCCC[C@H](NC(=O)[C@H](Cc1ccccc1)NC(=O)[C@@H]1CCCN1C(=O)[C@H](CO)NC(=O)[C@H](Cc1cccs1)NC(=O)CNC(=O)[C@@H]1CCCN1C(=O)[C@@H]1CCCN1C(=O)[C@H](CCCNC(=N)N)NC(=O)[C@H](CCCCN)NC(=O)[C@H](CCCNC(=N)N)NC(=O)[C@H](Cc1ccccc1)NC(=O)[C@@H]1CCCN1C(=O)[C@H](CO)NC(=O)[C@H](Cc1cccs1)NC(=O)CNC(=O)[C@@H]1CCCN1C(=O)[C@@H]1CCCN1C(=O)[C@H](CCCNC(=N)N)NC(=O)[C@@H](N)CCCCN)C(=O)O [Lys-BKm14] (H-KRPPG[2Thi]SPFRKRPPG[2Thi]SPFR-OH; N-terminus and C-terminus assumed)

Compound: Lys-BKm13-SPA5K: Lys-BKm13 N-terminally single-modified with M-SPA-5K PEG ({M‑SPA‑5K}-CRRPPG[2Thi]SPFR)
Activity of activating phosphorylation of ERK1/2 and CREB, PEG conjugates (in words) [3]: highest activity among different peptide variants | Neurological deficit symptoms and cerebral infarction area compared with the model group (in words) ([4]; Example 9, intravenous and subcutaneous injection 4.5 mg/kg): significant improvement in neurological deficit symptoms and cerebral infarction area | Neurological deficit symptom score ([4]; Table 7-4, intravenous injection 3 mg/kg, model group 3.00 ± 0.10): 2.13 ± 0.15 | Cerebral infarct size (%) ([4]; Table 7-4, intravenous injection 3 mg/kg, model group 38.79 ± 2.01): 23.54 ± 1.99 % | Neurological deficit symptom score ([4]; Table 7-6, subcutaneous injection 4.5 mg/kg, model group 3.00 ± 0.09): 2.69 ± 0.12 | Cerebral infarct size (%) ([4]; Table 7-6, subcutaneous injection 4.5 mg/kg, model group 41.40 ± 1.83): 36.07 ± 2.47% | Neurological deficit symptom score ([4]; Table 8-1, intravenous injection 4.5 mg/kg, model group 2.80 ± 0.11): 2.19 ± 0.16 | Cerebral infarct size (%) ([4]; Table 8-1, intravenous injection 4.5 mg/kg, model group 38.45 ± 2.16): 25.16 ± 2.36 % | Neurological deficit symptom score ([4]; Table 8-1, subcutaneous injection 4.5 mg/kg, model group 2.80 ± 0.11): 2.25 ± 0.17 | Cerebral infarct size (%) ([4]; Table 8-1, subcutaneous injection 4.5 mg/kg, model group 38.45 ± 2.16): 26.06 ± 2.69 %

Compound: Lys-BK-SPA5K: wild-type Lys-BK N-terminally single-modified with straight-chain M-SPA-5K PEG (about 5 kDa)
Residual time in serum system [1]: >360 min | Neurological deficit symptoms compared with the model group (in words) [4]: significant improvement in neurological deficit symptoms | Cerebral infarct size compared with the model group (in words) [4]: significant improvement in cerebral infarction area | Neurological deficit symptom score ([4]; Table 6-1, intravenous 3 mg/kg once 2 h after reperfusion, Mean ± SE, model group 3.13 ± 0.09): 2.38 ± 0.15 | Cerebral infarct size (%) ([4]; Table 6-2, intravenous 3 mg/kg, Mean ± SE, model group 48.50 ± 1.66): 34.84 ± 2.90 % | Neurological deficit symptom score ([4]; Table 7-1, intravenous injection 3 mg/kg, model group 2.69 ± 0.12): 2.13 ± 0.18 | Cerebral infarct size (%) ([4]; Table 7-1, intravenous injection 3 mg/kg, model group 38.73 ± 1.99): 24.73 ± 3.15 % | Neurological deficit symptom score ([4]; Table 9-1, oral administration once 6 mg/kg, model group 2.12 ± 0.17): 1.60 ± 0.17 | Cerebral infarct size (%) ([4]; Table 9-1, oral administration once 6 mg/kg, model group 29.23 ± 4.32): 22.82 ± 2.56%

Compound: N=C(N)NCCC[C@H](NC(=O)[C@H](Cc1ccccc1)NC(=O)[C@@H]1CCCN1C(=O)[C@H](CO)NC(=O)[C@H](Cc1cccs1)NC(=O)CNC(=O)[C@@H]1CCCN1C(=O)[C@@H]1CCCN1C(=O)[C@H](CCCNC(=N)N)NC(=O)[C@H](CCCNC(=N)N)NC(=O)[C@@H](N)CCCCN)C(=O)O [Lys-BKm11] (H-KRRPPG[2Thi]SPFR-OH; N-terminus and C-terminus assumed)
Residual time in serum system [1, 5]: 60~90 min

Compound: CC1=NN(c2ccccc2)C(=O)C1 [Edaravone, reference compound]
Neurological deficit symptoms compared with the model group (in words) [4]: significant improvement in neurological deficit symptoms | Cerebral infarct size compared with the model group (in words) [4]: significant improvement in cerebral infarct size | Neurological deficit symptom score ([4]; Table 6-1, intravenous 6 mg/kg once 2 h after reperfusion, Mean ± SE, model group 3.13 ± 0.09): 2.40 ± 0.13 | Cerebral infarct size (%) ([4]; Table 6-2, intravenous 6 mg/kg, Mean ± SE, model group 48.50 ± 1.66): 34.12 ± 2.35 %
